Where two headings read alike, the source gives them in different places.
How the values were obtained:
[1] = biological target: ligand binding domain of human FXR (Homo sapiens (Human), UniProt Q96RI1); assay: FXR ligand binding assay (LanthaScreen TR-FRET, SRC2-2 peptide recruitment); conditions: for pEC50: -log EC50, concentration required to produce 50% activation; for Emax: read-out: % Efficacy
[2] = biological target: human Farnesoid X receptor ligand-binding domain/Gal4 DNA binding domain chimera (Homo sapiens (Human), UniProt Q96RI1); assay: Cell-based assay of FXR activation (FXR-UAS-bla HEK 293T beta-lactamase reporter); conditions: cellular FXR beta-lactamase reporter assay; for Emax: HEK-293T, read-out: % Efficacy
How it was run: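 HEK 293T cells stably expressing a Gal4-fused human FXR LBD and a UAS-driven beta-lactamase reporter were incubated with serially diluted compounds for 16 h at 37 °C in phenol red-free DMEM with 2% charcoal-stripped FBS. CCF4 FRET read-out: excitation 409 nm, emission 447 nm. pEC50 comes from a 3-parameter logistic fit, and efficacy is given as % of GW4064.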

[3] = extent of activation relative to GW4064
[4] = FXR-UAS-bla HEK 293T cells, 16 h, pEC50 = -log EC50

Chain of human Farnesoid X receptor ligand-binding domain/Gal4 DNA binding domain chimera (Q96RI1 262-486, change not shown): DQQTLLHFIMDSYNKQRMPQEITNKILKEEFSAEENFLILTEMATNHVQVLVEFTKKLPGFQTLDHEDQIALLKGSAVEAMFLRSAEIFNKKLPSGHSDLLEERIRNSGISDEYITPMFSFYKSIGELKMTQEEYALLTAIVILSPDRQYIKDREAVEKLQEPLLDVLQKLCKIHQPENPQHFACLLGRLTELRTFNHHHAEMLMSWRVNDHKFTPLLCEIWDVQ
Chain of human Farnesoid X receptor ligand-binding domain/Gal4 DNA binding domain chimera (P04386 1-147 partner): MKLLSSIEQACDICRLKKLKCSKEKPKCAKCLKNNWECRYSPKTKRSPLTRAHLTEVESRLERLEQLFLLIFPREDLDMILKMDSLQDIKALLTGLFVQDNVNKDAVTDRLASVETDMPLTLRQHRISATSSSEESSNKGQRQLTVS
Chain of ligand binding domain of human FXR (Q96RI1 262-486): as the sequence (Q96RI1 262-486, change not shown) above

% Efficacy [1, 3] | pEC50 [2, 4] | % Efficacy [2, 3] | Structure (SMILES) | pEC50 [1] | Emax [1, 3] | Emax [2, 3] | EC50 [2, 4] | Emax [1]
– | – | – | CCOCCOCCS(=O)(=O)NC(=O)c1ccc(N2C[C@@H]3C[C@H]2C[C@H]3OCc2c(-c3c(Cl)cccc3Cl)noc2C2CC2)c(F)c1 [Compound I-193, 4-((1S,4S,5R)-5-((5-cyclopropyl-3-(2,6-dichlorophenyl)isoxazol-4-yl)methoxy)-2-azabicyclo[2.2.1]heptan-2-yl)-N-((2-(2-ethoxyethoxy)ethyl)sulfonyl)-3-fluorobenzamide] | 8.2 | 138% | 114% | 1.58 nM | –
– | – | – | O=C(NS(=O)(=O)[C@@H]1CCC[C@H]1O)c1ccc(N2C(=O)[C@@H]3C[C@H]2C[C@H]3OCc2c(-c3c(Cl)cccc3Cl)noc2C2CC2)cc1F [Compound I-346, 4-[(1S,4R,5R)-5-{[5-cyclopropyl-3-(2,6-dichlorophenyl)-1,2-oxazol-4-yl]methoxy}-3-oxo-2-azabicyclo[2.2.1]heptan-2-yl]-2-fluoro-N-{[(1R,2R)-2-hydroxycyclopentyl]sulfonyl}benzamide] | 8.2 | 188% | 133% | 0.794 nM | –
– | – | – | CC(O)CCS(=O)(=O)NC(=O)c1ccc(N2C[C@@H]3C[C@H]2C[C@H]3OCc2c(-c3c(Cl)cccc3Cl)noc2C2CC2)cc1 (stereo partly drawn) [Compound I-217, 4-[(1S,4S,5R)-5-{[5-cyclopropyl-3-(2,6-dichlorophenyl)-1,2-oxazol-4-yl]methoxy}-2-azabicyclo[2.2.1]heptan-2-yl]-N-(3-hydroxybutanesulfonyl)benzamide] | 9.9 | – | 111% | 1 nM | 142%
– | – | – | O=C1NCCc2cc(N3C[C@@H]4C[C@H]3C[C@H]4OCc3c(-c4c(Cl)cccc4Cl)noc3C3CC3)ccc21 [Compound I-136, 6-[(1S,4S,5R)-5-{[5-cyclopropyl-3-(2,6-dichlorophenyl)-1,2-oxazol-4-yl]methoxy}-2-azabicyclo[2.2.1]heptan-2-yl]-1,2,3,4-tetrahydroisoquinolin-1-one] | 9 | – | 114% | 3.98 nM | 154%
– | – | – | O=C(O)[C@H]1CCc2cc(N3C[C@@H]4C[C@H]3C[C@H]4OCc3c(-c4c(Cl)cccc4Cl)noc3C3CC3)ccc2C1 (single isomer, unassigned) [Compound I-138] | 7.6 | 132% | 106% | 15.8 nM | –
147% | 9.5 | 108% | O=C(NS(=O)(=O)[C@H]1CC[C@H](O)CC1)c1ccc(N2C[C@@H]3C[C@H]2C[C@H]3OCc2c(-c3c(Cl)cccc3Cl)noc2C2CC2)cc1 [Compound I-221, 4-[(1S,4S,5R)-5-{[5-cyclopropyl-3-(2,6-dichlorophenyl)-1,2-oxazol-4-yl]methoxy}-2-azabicyclo[2.2.1]heptan-2-yl]-N-{[(1r,4r)-4-hydroxycyclohexyl]sulfonyl}benzamide] | 8.8 | – | – | – | –
– | – | – | Cc1cc(C(=O)NCCP(=O)(OCOC(=O)C(C)(C)C)OCOC(=O)C(C)(C)C)ccc1N1C[C@@H]2C[C@H]1C[C@H]2OCc1c(-c2c(Cl)cccc2Cl)noc1C1CC1 [Compound I-174, ({[2-({4-[(1S,4S,5R)-5-{[5-cyclopropyl-3-(2,6-dichlorophenyl)-1,2-oxazol-4-yl]methoxy}-2-azabicyclo[2.2.1]heptan-2-yl]-3-methylphenyl}formamido)ethyl]({[(2,2-dimethylpropanoyl)oxy]methoxy})phosphoryl}oxy)methyl 2,2-dimethylpropanoate] | 8.8 | 161% | 152% | 251 nM | –
– | – | – | CC(=O)OC(C)CCS(=O)(=O)NC(=O)c1ccc(N2C[C@@H]3C[C@H]2C[C@H]3OCc2c(-c3c(Cl)cccc3Cl)noc2C2CC2)cc1 (stereo partly drawn) [Compound I-216, 4-[({4-[(1S,4S,5R)-5-{[5-cyclopropyl-3-(2,6-dichlorophenyl)-1,2-oxazol-4-yl]methoxy}-2-azabicyclo[2.2.1]heptan-2-yl]phenyl}formamido)sulfonyl]butan-2-yl Acetate] | 9.4 | – | 112% | 0.398 nM | 145%
– | – | – | CC(C)c1cccc(F)c1-c1noc(C2CC2)c1CO[C@@H]1C[C@@H]2C[C@H]1C(=O)N2c1ccc(C(=O)O)cc1 [Compound I-310, 4-[(1S,4R,5R)-5-({5-cyclopropyl-3-[2-fluoro-6-(propan-2-yl)phenyl]-1,2-oxazol-4-yl}methoxy)-3-oxo-2-azabicyclo[2.2.1]heptan-2-yl]benzoic Acid] | 7.6 | 155% | 115% | 7.94 nM | –
– | – | – | CS(=O)(=O)CCNC(=O)c1ccc(N2C[C@@H]3C[C@H]2C[C@H]3OCc2c(-c3c(Cl)cccc3Cl)noc2C2CC2)cc1 [Compound I-169, 4-[(1S,4S,5R)-5-{[5-cyclopropyl-3-(2,6-dichlorophenyl)-1,2-oxazol-4-yl]methoxy}-2-azabicyclo[2.2.1]heptan-2-yl]-N-(2-methanesulfonylethyl)benzamide] | 8.4 | 160% | 106% | 1.58 nM | –
– | – | – | COc1cc(N2C[C@@H]3C[C@H]2C[C@H]3OCc2c(-c3c(Cl)cccc3Cl)noc2C2CC2)ccc1C(=O)O [Compound I-112, 4-((1S,4S,5R)-5-((5-cyclopropyl-3-(2,6-dichlorophenyl)isoxazol-4-yl)methoxy)-2-azabicyclo[2.2.1]heptan-2-yl)-2-methoxybenzoic acid] | 9.4 | 116% | 100% | 5.01 nM | –
– | – | – | CS(=O)(=O)NC(=O)c1ccc(N2C[C@@H]3C[C@H]2C[C@H]3OC(=O)c2c(-c3c(Cl)cccc3Cl)noc2C2CC2)c(F)c1 [Compound I-48, (1S,4S,5R)-2-[2-fluoro-4-(methanesulfonylcarbamoyl)phenyl]-2-azabicyclo[2.2.1]heptan-5-yl 5-cyclopropyl-3-(2,6-dichlorophenyl)-1,2-oxazole-4-carboxylate] | 7.6 | 199% | 119% | 6.31 nM | –
– | – | – | O=C(O)c1cc(F)c2nc(N3C[C@@H]4C[C@H]3C[C@H]4OCc3c(-c4c(Cl)cc(O)cc4Cl)noc3C3CC3)sc2c1 [Compound I-287, 2-[(1S,4S,5R)-5-{[5-cyclopropyl-3-(2,6-dichloro-4-hydroxyphenyl)-1,2-oxazol-4-yl]methoxy}-2-azabicyclo[2.2.1]heptan-2-yl]-4-fluoro-1,3-benzothiazole-6-carboxylic Acid] | 9.2 | 134% | 113% | 63.1 nM | –
– | – | – | O=C(O)c1cc(O[C@H]2CCOC2)c2nc(N3C[C@@H]4C[C@H]3C[C@H]4OCc3c(-c4c(F)cccc4Cl)noc3C3CC3)sc2c1 [Compound I-267, 2-((1S,4S,5R)-5-((3-(2-chloro-6-fluorophenyl)-5-cyclopropylisoxazol-4-yl)methoxy)-2-azabicyclo[2.2.1]heptan-2-yl)-4-(((S)-tetrahydrofuran-3-yl)oxy)benzo[d]thiazole-6-carboxylic acid] | 8.6 | 146% | 102% | 1 nM | –
– | – | – | O=C(NS(=O)(=O)CCCCCCCCCCN1CCC1)c1ccc(N2C[C@@H]3C[C@H]2C[C@H]3OCc2c(-c3c(Cl)cccc3Cl)noc2C2CC2)c(F)c1 [Compound I-227, N-[10-(azetidin-1-yl)decanesulfonyl]-4-[(1S,4S,5R)-5-{[5-cyclopropyl-3-(2,6-dichlorophenyl)-1,2-oxazol-4-yl]methoxy}-2-azabicyclo[2.2.1]heptan-2-yl]-3-fluorobenzamide] | 8.1 | 163% | 97% | 1 nM | –
– | – | – | N#Cc1cc(C(=O)O)ccc1N1C[C@@H]2C[C@H]1C[C@H]2OCc1c(-c2c(Cl)cccc2Cl)noc1C1CC1 [Compound I-102, 3-cyano-4-[(1S,4S,5R)-5-{[5-cyclopropyl-3-(2,6-dichlorophenyl)-1,2-oxazol-4-yl]methoxy}-2-azabicyclo[2.2.1]heptan-2-yl]benzoic Acid] | 8.6 | 112% | 106% | 0.794 nM | –
– | – | – | O=C(O)c1cnc(N2C[C@@H]3C[C@H]2C[C@H]3OCc2c(-c3c(Cl)cccc3Cl)noc2C2(F)CC2)c(F)c1 [Compound I-130, 6-[(1S,4S,5R)-5-{[3-(2,6-dichlorophenyl)-5-(1-fluorocyclopropyl)-1,2-oxazol-4-yl]methoxy}-2-azabicyclo[2.2.1]heptan-2-yl]-5-fluoropyridine-3-carboxylic Acid] | 8 | 152% | 99% | 7.94 nM | –
– | – | – | O=C(NS(=O)(=O)C1CCC1)c1ccc(N2C[C@@H]3C[C@H]2C[C@H]3OCc2c(-c3c(Cl)cccc3Cl)noc2C2CC2)cc1 [Compound I-183, N-(cyclobutylsulfonyl)-4-((1S,4S,5R)-5-((5-cyclopropyl-3-(2,6-dichlorophenyl)isoxazol-4-yl)methoxy)-2-azabicyclo[2.2.1]heptan-2-yl)benzamide] | 8.6 | 163% | 119% | 0.1 nM | –
– | – | – | O=C(O)c1ccc(N2C(=O)[C@@H]3C[C@H]2C[C@H]3OCc2c(-c3c(Cl)cccc3Cl)noc2C2CC2)c(F)c1 [Compound I-315, 4-[(1S,4R,5R)-5-{[5-cyclopropyl-3-(2,6-dichlorophenyl)-1,2-oxazol-4-yl]methoxy}-3-oxo-2-azabicyclo[2.2.1]heptan-2-yl]-3-fluorobenzoic Acid] | 7.4 | 157% | 106% | 25.1 nM | –

Source: US10793568B2, “Hormone receptor modulators for treating metabolic conditions and disorders” (ARDELYX, INC., priority 2016, dated 2020)
